Entries after “also recorded” stand apart in the source; their conditions may differ.
Tests used:
Assay in all cases: PGE of HPRT with Cpf1 electroporation in non-pluripotent cells
[1] = test system: HEK293 cells; type: cell-based, human; settings: 20 μM NU7026, 0.01 μM TSA, 0.5 μM MLN4924, 5 μM NSC 15520
Procedure: (§1) Stem cell lines cultured for this project included human 409-B2 hiPSC ([…], Riken BioResource Center) and SC102A1 hiPSC ([…], BioCat GmbH), chimpanzee SandraA ciPSC (female, Mora-Bermúdez et al. 201637), as well as H9 hESC ([…], WiCell Research Institute, Ethics permit AZ 3.04.02/0118). Stem cell lines were grown on Matrigel Matrix (Corning, 35248), and mTeSR1 (StemCell Technologies, 05851) with mTeSR1 supplement (StemCell Technologies, 05852) was used as culture media. Non-pluripotent cell types and their respective media used were: HEK293 (ECACC, 85120602) with DMEM/F-12 (Gibco, 31330-038) supplemented with 10% FBS (SIGMA, F2442) and 1% NEAA (SIGMA, M7145); K562 (ECACC, 89121407) with IMDM (ThermoFisher, 12440053) supplemented with 10% FBS; CD4^+ T (HemaCare, PB04C-1) with RPMI 1640 (ThermoFisher, 11875-093) supplemented with 10% FBS, and activated with Dynabeads Human T-Activator (CD3/CD28) (ThermoFisher, 11131D); CD34^+ progenitor (HemaCare, M34C-1) with StemSpan SFEM (Stemcell, 09600) supplemented with StemSpan CC110 (StemCell, 02697); and HEKa (Gibco, C0055C) with Medium 154 (ThermoFisher, M154500) and Human Keratinocyte Growth Supplement (ThermoFisher, S0015). Cells were grown at 37° C. in a humidified incubator gassed with 5% CO2. Media was replaced every day for stem cells and every second day for non-pluripotent cell lines. Cell cultures were maintained 4-6 days until ˜80% confluency, and subcultured at a 1:6 to 1:10 dilution. Adherent cells were dissociated using EDTA (VWR, 437012C). The media was supplemented with 10 μM Rho-associated protein kinase (ROCK) inhibitor Y-27632 (Calbiochem, 688000) after cell splitting for one day in order to increase cell survival.
(§2) The recombinant A.s. Cpf1 and S.p. Cas9 protein and electroporation enhancer was ordered from IDT (Coralville, USA) and nucleofection was done using the manufacturer's protocol, except for the following alterations. Nucleofection was done using the B-16 program (or U-14 for CD4^+ T cells) of the Nucleofector 2b Device (Lonza) in cuvettes for 100 μl Human Stem Cell nucleofection buffer (Lonza, VVPH-5022), or Human T Cell nucleofection buffer for CD4^+ T cells (Lonza, VPA-1002), and Human CD34 Cell nucleofection buffer for CD34^+ progenitor cells (Lonza, VPA-1003), containing 1 million cells of the respective lines, 78 pmol electroporation enhancer, 160 pmol of each gRNA (crRNA/tracR duplex for Cas9 and crRNA for Cpf1) (320 pmol for double nicking with both gRNAs for one gene), 200 pmol ssODN donor, 252 pmol CRISPR protein. For multiplexing, only gRNAs and single stranded DNA donors were electroporated, since a Cas9n expressing iCRISPR-Cas9n hiPSC line was used. Cells were counted using the Countess Automated Cell Counter (Invitrogen). […]

[2] = test system: K562 cells; type: cell-based, human; settings: 20 μM NU7026, 0.01 μM TSA, 0.5 μM MLN4924, 5 μM NSC 15520
Procedure: as §1, §2

[3] = test system: primary Human Epidermal Keratinocytes (HEKa); type: cell-based
Procedure: as §1
The recombinant A.s. Cpf1 and S.p. Cas9 protein and electroporation enhancer was ordered from IDT (Coralville, USA) and nucleofection was done using the manufacturer's protocol, except for the following alterations. […] Cells were counted using the Countess Automated Cell Counter (Invitrogen). […]

[4] = test system: CD4^+ T cells; type: cell-based, human; settings: primary cells
Procedure: (§3) Cells were grown at 37° C. in a humidified incubator gassed with 5% CO2. Media was replaced every day for stem cells and every second day for non-pluripotent cell lines. Cell cultures were maintained 4-6 days until ˜80% confluency, and subcultured at a 1:6 to 1:10 dilution.
(§4) The recombinant A.s. Cpf1 and S.p. Cas9 protein and electroporation enhancer was ordered from IDT (Coralville, USA) and nucleofection was done using the manufacturer's protocol, except for the following alterations. […] For multiplexing, only gRNAs and single stranded DNA donors were electroporated, since a Cas9n expressing iCRISPR-Cas9n hiPSC line was used. Cells were counted using the Countess Automated Cell Counter (Invitrogen).
(§5) Three days after lipofection cells were dissociated using Accutase (SIGMA, A6964), pelleted, and resuspended in 15 μl QuickExtract (Epicentre, QE0905T). Incubation at 65° C. for 10 min, 68° C. for 5 min and finally 98° C. for 5 min was performed to yield ssDNA as a PCR template. Primers for each targeted loci of CALD1, KATNA1 and SLITRK1 containing adapters for Illumina sequencing were ordered from IDT (Coralville, USA). PCR was done in a T100 Thermal Cycler (Bio-Rad) using the KAPA2G Robust PCR Kit (Peqlab, 07-KK5532-03) with supplied buffer B and 3 μl of cell extract in a total volume of 25 μl. The thermal cycling profile of the PCR was: 95° C.

[5] = test system: CD34^+ progenitor cells; type: cell-based, human; settings: primary cells
Procedure: as §3, §4, §5

Compound	effect on PGE efficiency [1]	effect on PGE efficiency [2]	effect on PGE efficiency [3]	effect on PGE efficiency [4]	effect on PGE efficiency [5]
NS(=O)(=O)OC[C@@H]1C[C@@H](n2ccc3c(N[C@H]4CCc5ccccc54)ncnc32)C[C@@H]1O [MLN4924, Pevonedistat]	clear disruptive effect	clear disruptive effect	disruptive effect	disruptive effect	disruptive effect
CC(C)C1=CC23CCC4C(C)(C(=O)O)CCCC4(C)C2CC1C(C(=O)O)C3C(=O)O (stereo not drawn) [NSC 15520, Fumaropimaric acid]			disruptive effect		
O=c1cc(N2CCOCC2)oc2c1ccc1ccccc12 [NU7026]	strongly increases; also recorded: increases	strongly increases; also recorded: increases	disruptive effect		
